# Like-named read-outs stand apart in the source and are kept apart here.
# Key:
# Jurkat cells = assay: Cell viability MTS assay, Jurkat; assay type: cell-based; conditions: for IC50: Homo sapiens, Jurkat, 72 h, MTS assay, read-out: IC50 antiproliferative, Jurkat
# Procedure: (§1) MTS assay was used to measure the cell viability. For single treatment, Jurkat, THP-1 and HEL (8000 cells/well), HCT116 and A549 (2000 cells/well) were seeded in 96-well plates in 100 μL complete medium. After overnight incubation, 50 μL of media containing various concentrations of compounds or the vehicle were added to each well. For cotreatment, cells were seeded in 96-well plates in 50 μL complete medium. After overnight incubation, 50 μL of Z-VAD-FMK, Nec-1, Fer-1, CQ, and other indicated compounds were added to each well. One hour later, 50 μL of media containing various concentrations of compounds were added to each well. After 72 h of treatment, 20 μL of CellTiter 96 AQueous One Solution reagent (Promega, Madison, USA) was added to each well according to manufacturer’s protocol. Plates were incubated at 37 °C for 1–2 h. The absorbance was determined at a wavelength of 490 nm using a Synergy H1 plate reader (Biotek, Winooski, VT, USA).
# HDAC2 = HDAC2 (Homo sapiens, UniProt Q92769); assay: In vitro HDAC2 deacetylase inhibition assay; conditions: read-out: HDAC2 IC50; recombinant enzyme, Boc-Lys(Ac)-AMC
# Procedure: (§2) After a following incubation at 37 °C for 20 min, the fluorescence was measured on a Synergy H1 Platereader (BioTek, USA) with an excitation wavelength of 370 nm and an emission wavelength of 460 nm. Nonlinear regression was used for the determination of the IC50 of each compound.
# HCT116 cells = assay: Cell viability MTS assay, HCT116; assay type: cell-based; conditions: Homo sapiens, HCT-116, 72 h, read-out: IC50 antiproliferative, HCT116
# Procedure: as §1
# THP-1 cells = assay: Cell viability MTS assay, THP-1; assay type: cell-based; conditions: Homo sapiens, 72 h, read-out: IC50 antiproliferative, THP-1
# Procedure: as §1
# HDAC1 = HDAC1 (Homo sapiens, UniProt Q13547); assay: In vitro HDAC1 deacetylase inhibition assay; conditions: read-out: HDAC1 IC50; recombinant enzyme, Boc-Lys(Ac)-AMC
# Procedure: as §2
# HDAC8 [1] = biological target: T1, HDAC8 (Homo sapiens, UniProt Q9BY41); assay: In vitro HDAC8 deacetylase inhibition assay
# T1 sequence (Q9BY41 1-377): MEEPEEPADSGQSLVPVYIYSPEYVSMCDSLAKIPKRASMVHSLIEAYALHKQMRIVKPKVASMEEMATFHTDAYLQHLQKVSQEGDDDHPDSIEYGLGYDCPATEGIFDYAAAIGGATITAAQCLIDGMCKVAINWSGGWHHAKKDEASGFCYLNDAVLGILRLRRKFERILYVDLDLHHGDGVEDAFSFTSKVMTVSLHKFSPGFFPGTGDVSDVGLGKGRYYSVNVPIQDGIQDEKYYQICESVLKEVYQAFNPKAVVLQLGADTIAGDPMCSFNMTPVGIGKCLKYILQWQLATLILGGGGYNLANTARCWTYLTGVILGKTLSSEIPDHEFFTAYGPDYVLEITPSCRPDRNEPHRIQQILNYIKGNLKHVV
# Procedure: as §2
# A549 cells = assay: Cell viability MTS assay, A549; assay type: cell-based; conditions: Homo sapiens, 72 h, read-out: IC50 antiproliferative, A549
# Procedure: as §1
# HDAC3/NcoR2 = HDAC3/NcoR2 (Homo sapiens, UniProt O15379); assay: In vitro HDAC3 deacetylase inhibition assay; conditions: read-out: HDAC3 IC50; recombinant enzyme, Boc-Lys(Ac)-AMC
# Procedure: as §2
# acetyl-SMC3 (Ac-SMC3) = assay: Ac-SMC3 level in Jurkat cells, Western blot; assay type: cell-based; conditions: 1 μM, 6 h
# HDAC8 [2] = biological target: T1, HDAC8; assay: HDAC8 degradation in Jurkat cells, Western blot; conditions: for inhibition at 0.1 µM: read-out: Degradation (%) at 100 nM (HDAC8)
# HDAC8 [3] = biological target: T1, HDAC8; parameters: endogenous in cells; host or cells: HCT116; method as in PMID 35759908; conditions: HCT116 cells; cited from earlier work
# HDAC6 [4] = biological target: T2, HDAC6 (Homo sapiens, UniProt Q9UBN7); parameters: endogenous in cells; conditions: MDA-MB-231 cells; cited from earlier work
# T2 sequence (Q9UBN7 1-1215): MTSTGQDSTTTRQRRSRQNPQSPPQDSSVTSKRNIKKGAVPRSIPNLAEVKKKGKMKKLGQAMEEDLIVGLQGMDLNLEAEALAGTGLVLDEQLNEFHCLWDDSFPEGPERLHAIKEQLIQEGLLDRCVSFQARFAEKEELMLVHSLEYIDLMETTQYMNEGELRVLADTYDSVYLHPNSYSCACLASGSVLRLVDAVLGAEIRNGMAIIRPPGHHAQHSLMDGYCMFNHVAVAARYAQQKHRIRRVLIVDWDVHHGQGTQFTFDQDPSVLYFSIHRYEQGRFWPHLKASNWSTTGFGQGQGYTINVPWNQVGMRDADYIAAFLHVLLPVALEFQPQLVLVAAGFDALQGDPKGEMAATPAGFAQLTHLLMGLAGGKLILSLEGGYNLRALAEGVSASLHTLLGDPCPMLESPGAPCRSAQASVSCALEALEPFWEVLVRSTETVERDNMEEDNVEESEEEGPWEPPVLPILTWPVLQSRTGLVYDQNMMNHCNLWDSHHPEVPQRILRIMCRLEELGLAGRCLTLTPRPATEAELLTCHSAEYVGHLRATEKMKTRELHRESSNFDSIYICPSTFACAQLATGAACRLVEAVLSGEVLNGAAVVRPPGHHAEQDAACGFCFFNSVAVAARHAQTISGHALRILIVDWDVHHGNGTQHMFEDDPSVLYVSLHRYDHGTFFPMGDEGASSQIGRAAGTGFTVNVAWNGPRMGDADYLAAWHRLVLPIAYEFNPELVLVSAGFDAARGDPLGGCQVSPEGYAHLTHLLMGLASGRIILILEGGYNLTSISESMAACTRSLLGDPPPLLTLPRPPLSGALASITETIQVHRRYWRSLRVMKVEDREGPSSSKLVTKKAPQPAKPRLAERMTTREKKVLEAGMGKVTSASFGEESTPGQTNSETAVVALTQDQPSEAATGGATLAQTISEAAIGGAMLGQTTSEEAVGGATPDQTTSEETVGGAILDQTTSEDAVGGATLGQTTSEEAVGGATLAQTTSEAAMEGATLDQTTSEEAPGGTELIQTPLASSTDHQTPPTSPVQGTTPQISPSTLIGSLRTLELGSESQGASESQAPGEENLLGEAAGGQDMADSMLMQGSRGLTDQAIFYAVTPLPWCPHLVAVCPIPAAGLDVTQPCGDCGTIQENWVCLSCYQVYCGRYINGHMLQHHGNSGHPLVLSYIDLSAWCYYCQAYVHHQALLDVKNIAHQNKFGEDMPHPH
# HDAC6 [5] = biological target: T2, HDAC6; parameters: endogenous in cells; host or cells: Jurkat; conditions: Jurkat cells; cited from earlier work
# HDAC8 [6] = biological target: T1, HDAC8; parameters: endogenous in cells; host or cells: A549; method as in PMID 36516047; conditions: A549 cells; cited from earlier work
# Sequence of HDAC3/NcoR2 (O15379 whole entry): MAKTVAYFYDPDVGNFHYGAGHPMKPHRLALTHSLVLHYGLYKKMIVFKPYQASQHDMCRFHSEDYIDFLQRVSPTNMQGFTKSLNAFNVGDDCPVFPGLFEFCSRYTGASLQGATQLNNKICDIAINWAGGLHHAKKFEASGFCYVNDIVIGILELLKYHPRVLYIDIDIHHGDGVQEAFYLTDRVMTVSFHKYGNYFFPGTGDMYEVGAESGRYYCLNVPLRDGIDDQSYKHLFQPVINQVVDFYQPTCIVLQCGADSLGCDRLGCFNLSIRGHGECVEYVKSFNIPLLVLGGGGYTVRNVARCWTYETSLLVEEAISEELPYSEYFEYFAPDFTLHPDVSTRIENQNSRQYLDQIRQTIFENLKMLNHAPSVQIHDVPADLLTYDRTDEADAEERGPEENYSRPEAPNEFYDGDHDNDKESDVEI
# Sequence of HDAC3/NcoR2 (Q9Y618 395-489 partner limits assumed): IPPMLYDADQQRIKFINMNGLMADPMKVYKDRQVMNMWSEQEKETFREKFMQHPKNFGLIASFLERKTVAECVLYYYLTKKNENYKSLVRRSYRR
# Sequence of HDAC2 (Q92769 whole entry): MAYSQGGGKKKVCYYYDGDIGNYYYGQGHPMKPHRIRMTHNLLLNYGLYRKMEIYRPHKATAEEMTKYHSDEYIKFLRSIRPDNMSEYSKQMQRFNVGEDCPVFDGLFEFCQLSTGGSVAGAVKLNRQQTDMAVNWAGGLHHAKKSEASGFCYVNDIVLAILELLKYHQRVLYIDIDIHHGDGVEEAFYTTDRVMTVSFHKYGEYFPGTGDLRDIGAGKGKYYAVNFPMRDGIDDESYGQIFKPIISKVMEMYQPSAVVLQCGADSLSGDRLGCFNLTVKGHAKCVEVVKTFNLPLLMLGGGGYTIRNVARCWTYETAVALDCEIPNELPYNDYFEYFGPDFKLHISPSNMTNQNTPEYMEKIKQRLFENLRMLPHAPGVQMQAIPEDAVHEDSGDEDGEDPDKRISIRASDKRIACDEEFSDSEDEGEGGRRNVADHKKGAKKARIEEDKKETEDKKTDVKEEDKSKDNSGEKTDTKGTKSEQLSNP
# Sequence of HDAC1 (Q13547 whole entry): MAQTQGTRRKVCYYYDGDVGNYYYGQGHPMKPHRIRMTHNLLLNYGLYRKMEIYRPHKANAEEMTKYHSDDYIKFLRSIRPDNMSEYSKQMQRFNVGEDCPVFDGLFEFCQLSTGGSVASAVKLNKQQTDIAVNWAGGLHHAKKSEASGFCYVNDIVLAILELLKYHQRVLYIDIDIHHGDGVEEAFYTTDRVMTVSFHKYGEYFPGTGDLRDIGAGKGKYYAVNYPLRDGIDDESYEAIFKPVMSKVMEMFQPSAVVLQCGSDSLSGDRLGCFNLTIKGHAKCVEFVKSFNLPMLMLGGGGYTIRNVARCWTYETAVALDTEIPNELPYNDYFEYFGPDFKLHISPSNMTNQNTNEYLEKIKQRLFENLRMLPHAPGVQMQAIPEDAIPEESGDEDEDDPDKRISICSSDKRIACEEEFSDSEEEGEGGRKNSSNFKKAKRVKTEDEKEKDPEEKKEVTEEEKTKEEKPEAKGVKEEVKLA
Compound,IC50 (Jurkat cells),IC50 (HCT116 cells),IC50 (THP-1 cells),IC50 (A549 cells),"inhibition at 0.1 µM (HDAC8 [2]; Jurkat, 6 h)",further results
"CCCCCCNNC(=O)c1ccc(CNC(C)=O)cc1 [Compound 6, N-(4-(2-Hexylhydrazine-1-carbonyl)benzyl)acetamide]",> 33.3 µM,> 33.3 µM,> 33.3 µM,> 33.3 µM,–,"IC50 (HDAC2): 8 ± 1 µM; IC50 (HDAC1): 0.94 ± 0.05 µM; IC50 (HDAC8 [1]; read-out: HDAC8 IC50, recombinant enzyme, Boc-Lys(TFA)-AMC): 0.6 ± 0.08 µM; IC50 (HDAC3/NcoR2): 9.5 ± 0.7 µM; level of Ac-SMC3 at 1 μM (in words) (acetyl-SMC3 (Ac-SMC3)): neither 1 μM of pan-HDAC inhibitor SAHA nor 1 μM of HDAC8 inhibitor 6 increased the level of Ac-SMC3"
"CCCCCCNNC(=O)c1ccc(CNC(=O)CN2CCC(c3ccc(NC(C)=O)cc3)CC2)cc1 [Compound 32, 2-(4-(4-Acetamidophenyl)piperidin-1-yl)-N-(4-(2-hexylhydrazine-1-carbonyl)benzyl)acetamide]",3 ± 0.3 µM,2.8 ± 0.3 µM,3.4 ± 0.6 µM,12 ± 1.6 µM,–,"IC50 (HDAC8 [1]): 16.6 ± 2.8 µM; HDAC8 degradation by control compounds (in words) (HDAC8 [2]; Jurkat cells, 6 h): Neither NC-Z16 nor 32 induced HDAC8 degradation"
COc1ccc(Cn2ccc3ccc(C(=O)NO)cc32)cc1 [PCI-34051],4.5 ± 0.7 µM,21.9 ± 2.8 µM,> 33.3 µM,> 33.3 µM,–,"decreased antiproliferative potency after Z16 pretreatment compared to single treatment (Jurkat cells; Jurkat pretreated with 50 nM Z16 for 2 h, then 72 h, MTS): about 5 fold"
O=C(CCCCOc1cccc(CCNC(=O)c2cccc(C(=O)NO)c2)c1)NCCCCCCNc1cccc2c1C(=O)N(C1CCC(=O)NC1=O)C2=O (stereo not shown) [PROTAC 2],–,–,–,–,–,DC50 (HDAC8 [3]): 0.147 µM
COc1ccc(C(=O)NO)cc1OCc1ccc(C(=O)NCCCCCCCCNc2cccc3c2C(=O)N(C2CCC(=O)NC2=O)C3=O)cc1 (stereo not shown) [PROTAC 4],4 ± 0.8 µM,8 ± 0.5 µM,10.8 ± 0.9 µM,15.2 ± 3.3 µM,–,DC50 (HDAC6 [4]): 0.038 µM; DC50 (HDAC6 [5]): 0.0785 µM
O=C1CCC(N2C(=O)c3cccc(NCc4cn(CCOCCOc5ccc(Cn6ccc7ccc(C(=O)NO)cc76)cc5)nn4)c3C2=O)C(=O)N1 (stereo not shown) [PROTAC 5],–,–,–,–,–,DC50 (HDAC8 [6]): 0.58 µM
"Nc1cccc2c1C(=O)N(C1CCC(=O)NC1=O)C2=O (stereo not shown) [Poma, pomalidomide]",> 33.3 µM,> 33.3 µM,> 33.3 µM,> 33.3 µM,–,–

# Further lines, with some results ahead:
IC50 (Jurkat cells),IC50 (HCT116 cells),IC50 (THP-1 cells),IC50 (A549 cells),"inhibition at 0.1 µM (HDAC8 [2]; Jurkat, 6 h)",Compound,further results
–,–,–,–,48 ± 4%,"CCCCCCNNC(=O)c1ccc(CNC(=O)CCCCCCCC(=O)N[C@H](C(=O)N2C[C@H](O)C[C@H]2C(=O)NCc2ccc(-c3scnc3C)cc2)C(C)(C)C)cc1 [Z11, N^1-(4-(2-Hexylhydrazine-1-carbonyl)benzyl)-N^9-((S)-1-((2S,4R)-4-hydroxy-2-((4-(4-methylthiazol-5-yl)benzyl)carbamoyl)pyrrolidin-1-yl)-3,3-dimethyl-1-oxobutan-2-yl)nonanediamide]",–
–,–,–,–,83 ± 2%,"CCCCCCNNC(=O)c1ccc(CNC(=O)CCCCCCCCC(=O)N[C@H](C(=O)N2C[C@H](O)C[C@H]2C(=O)NCc2ccc(-c3scnc3C)cc2)C(C)(C)C)cc1 [Z12, N^1-(4-(2-Hexylhydrazine-1-carbonyl)benzyl)-N^10-((S)-1-((2S,4R)-4-hydroxy-2-((4-(4-methylthiazol-5-yl)benzyl)carbamoyl)pyrrolidin-1-yl)-3,3-dimethyl-1-oxobutan-2-yl)decanediamide]","Dmax (HDAC8 [2]; Jurkat, read-out: Dmax (HDAC8 degradation)): 93%; DC50 (HDAC8 [2]; read-out: DC50 (HDAC8 degradation), Jurkat cells, 6 h): 0.0621 µM"
–,–,–,–,65 ± 5%,"CCCCCCNNC(=O)c1ccc(CNC(=O)CCCCCCCCCCC(=O)N[C@H](C(=O)N2C[C@H](O)C[C@H]2C(=O)NCc2ccc(-c3scnc3C)cc2)C(C)(C)C)cc1 [Z13, N^1-(4-(2-Hexylhydrazine-1-carbonyl)benzyl)-N^12-((S)-1-((2S,4R)-4-hydroxy-2-((4-(4-methylthiazol-5-yl)benzyl)carbamoyl)pyrrolidin-1-yl)-3,3-dimethyl-1-oxobutan-2-yl)dodecanediamide]",–
–,–,–,–,34 ± 3%,"CCCCCCNNC(=O)c1ccc(CNC(=O)C2CCN(c3ccc4c(c3)C(=O)N(C3CCC(=O)NC3=O)C4=O)CC2)cc1 (stereo not shown) [Z14, 1-(2-(2,6-Dioxopiperidin-3-yl)-1,3-dioxoisoindolin-5-yl)-N-(4-(2-hexylhydrazine-1-carbonyl)benzyl)piperidine-4-carboxamide]",–
–,–,–,–,25 ± 2%,"CCCCCCNNC(=O)c1ccc(CNCC2CCN(c3ccc4c(c3)C(=O)N(C3CCC(=O)NC3=O)C4=O)CC2)cc1 (stereo not shown) [Z15, 4-((((1-(2-(2,6-Dioxopiperidin-3-yl)-1,3-dioxoisoindolin-5-yl)piperidin-4-yl)methyl)amino)methyl)-N′-hexylbenzohydrazide]",–
–,–,–,–,13 ± 4%,"CCCCCCNNC(=O)c1cccc(NCc2ccc(C(=O)N3CCC(c4ccc(NC5CCC(=O)NC5=O)cc4)CC3)cc2)c1 (stereo not shown) [Z18, 3-((4-(4-(4-((2,6-Dioxopiperidin-3-yl)amino)phenyl)piperidine-1-carbonyl)benzyl)amino)-N′-hexylbenzohydrazide]",–

# From paper PMC11345830, “Exploration of Hydrazide-Based HDAC8 PROTACs for the Treatment of Hematological Malignancies and Solid Tumors” (Journal of Medicinal Chemistry, 2024)
